Active and inactive are the calls of the source.
Experiments:
[1] = cervical cancer cell viability loss – HeLa, 24 h, plate reader, powder samples, set 3, cytotoxicity control, dose response (AID 651864); type: functional, cell-based
Kallikrein-7 = Kallikrein-7 (Homo sapiens, UniProt P49862); experiment: Fluorescence Intensity-based biochemical primary high throughput dose response assay to identify activators of kallikrein-7 (K7) zymogen.
[2] = target: Luciferin 4-monooxygenase (Photinus pyralis, UniProt P08659); experiment: inhibition of purified Photinus pyralis luciferase – biochemical, luminescence, dose response (AID 1891)
[3] = target: 1-phosphatidylinositol 4,5-bisphosphate phosphodiesterase beta-3 (Homo sapiens, UniProt Q01970); experiment: Fluorescence-based biochemical high throughput dose response assay to identify inhibitors of phospholipase C isozymes (PLC-B3).
[4] = Luminescence Cell-Based Dose Confirmation HTS to Identify Inhibitors of Platelet Dense Granule Release. [Related pubchem assays: 1663 (Primary HTS), 1678 (Summary of Project)]; type: functional
[5] = target: 1-phosphatidylinositol 4,5-bisphosphate phosphodiesterase gamma-1 (Homo sapiens, UniProt P19174); experiment: Counterscreen for inhibitors of phospholipase C isozymes (PLC-B3): Fluorescence-based biochemical high throughput dose response assay to identify inhibitors of phospholipase C isozymes (PLC-gamma1).
[6] = MITF Orthogonal Assay: MALME3 CTG Assay Measured in Cell-Based System Using Plate Reader - 2084-04_Inhibitor_Dose_DryPowder_Activity_Set6.; type: functional; details: MALME-3
[7] = growth inhibition of SK-MEL-5 melanoma cells – cell-based, CellTiter-Glo luminescence, dry powder, set 8, orthogonal assay for MITF inhibitor project, dose response (AID 651586); type: functional
[8] = inhibitors of TRPM1-promoter reporter in SK-MEL-5 – cell-based, luciferase, dry powder, set 8, MITF inhibitor project, dose response (AID 624430); type: functional
[9] = melanocyte viability loss, MITF-dependent cells, cell-based, plate reader, dry powder, cytotoxicity control, dose response (AID 651920); type: functional
[10] = MITF: Counter assay: A375 proliferation Measured in Cell-Based System Using Plate Reader - 2084-03_Inhibitor_Dose_DryPowder_Activity_Set8.; type: functional; details: A-375
[11] = inhibitors of TRPM1-promoter reporter in SK-MEL-5 – cell-based, luciferase, dry powder, set 9, MITF inhibitor project, dose response (AID 651588); type: functional
[12] = MITF Orthogonal Assay: SK-MEL-5 CTG Assay Measured in Cell-Based System Using Plate Reader - 2084-02_Inhibitor_Dose_DryPowder_Activity_Set7.; type: functional
[13] = growth inhibition of MALME3 cells – cell-based, CellTiter-Glo luminescence, dry powder, set 5, orthogonal assay for MITF inhibitor project, dose response (AID 651584); type: functional; details: MALME-3
[14] = cytotoxicity in MITF-independent A375 cells – cell-based, CellTiter-Glo luminescence, dry powder, set 9, counter-screen for MITF modulator project, dose response (AID 651591); type: functional; details: A-375
Vero = experiment: viability of Vero cells under compound – cytotoxicity control for flavivirus capping enzyme inhibitors (AID 588742); type: functional; details: Chlorocebus sabaeus
[15] = Luminescence Cell-Based Dose Response HTS to Identify Activators of Luciferase Translation or Activity in H4 […] Cells. [Related pubchem assays: 1829 (Project Summary), 1814 (Primary HTS)]; type: functional
H4 = experiment: Luminescence Cell-Based Dose Response HTS to Identify Activators of 5'UTR Stem-Loop Driven Prion Protein mRNA Translation in H4 Neuroglioblastoma Cells. [Related pubchem assays: 1829 (Project Summary), 1814 (Primary HTS)]; type: functional; details: Homo sapiens
[16] = Luminescence Cell-Based Dose Confirmation HTS to Identify Activators of 5'UTR Stem-Loop Driven Alpha-Synuclein mRNA Translation in H4 Neuroglioblastoma Cells. [Related pubchem assays: 1829 (Project Summary), 1814 (Primary HTS)]; type: functional
[17] = IC50 of Artemis nuclease activity blockers – biochemical, fluorescence intensity, dose response (AID 720701); type: functional;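 note: Artemis endonuclease enzyme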
[18] = target: T1, Oxysterols receptor LXR-beta (Homo sapiens, UniProt P55055); experiment: LXR agonists, Gal4 luciferase reporter, dose response, counter-screen for ssDAF-12 agonist project, cell-based, luminescence, HEK293, S. stercoralis campaign (AID 720737); type: functional; details: read-out: IC50 (the source's name)
T1 sequence (P55055 whole entry): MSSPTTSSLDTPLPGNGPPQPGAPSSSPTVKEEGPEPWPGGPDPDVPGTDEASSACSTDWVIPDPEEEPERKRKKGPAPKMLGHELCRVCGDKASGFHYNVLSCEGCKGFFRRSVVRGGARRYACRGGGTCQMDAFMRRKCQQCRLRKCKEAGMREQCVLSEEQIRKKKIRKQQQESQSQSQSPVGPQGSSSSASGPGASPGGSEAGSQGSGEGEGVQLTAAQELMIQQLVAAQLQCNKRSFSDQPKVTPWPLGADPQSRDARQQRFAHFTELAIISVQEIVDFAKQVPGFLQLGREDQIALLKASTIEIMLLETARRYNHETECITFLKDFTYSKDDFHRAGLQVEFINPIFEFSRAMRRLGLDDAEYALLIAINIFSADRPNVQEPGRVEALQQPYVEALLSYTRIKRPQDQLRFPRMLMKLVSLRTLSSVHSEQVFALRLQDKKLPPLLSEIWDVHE

[19] = target: T2, Sentrin-specific protease 8 (Homo sapiens, UniProt Q96LD8); type: functional;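 note: luminescence read-out of SENP8 inhibition, dose-response confirmation following an ultra-high-throughput screen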
T2 sequence (Q96LD8 whole entry): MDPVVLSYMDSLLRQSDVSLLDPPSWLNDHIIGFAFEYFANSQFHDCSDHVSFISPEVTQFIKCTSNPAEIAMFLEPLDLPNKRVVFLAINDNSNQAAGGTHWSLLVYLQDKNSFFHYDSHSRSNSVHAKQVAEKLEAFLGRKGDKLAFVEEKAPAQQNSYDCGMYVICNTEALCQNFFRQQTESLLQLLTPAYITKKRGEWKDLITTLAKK

[20] = target: T3, Sentrin-specific protease 6 (Homo sapiens, UniProt Q9GZR1); type: functional;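 note: Luminescence-based dose-response confirmatory assay of SENP6 inhibition, following up an ultra-high-throughput screen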
T3 sequence (Q9GZR1 whole entry): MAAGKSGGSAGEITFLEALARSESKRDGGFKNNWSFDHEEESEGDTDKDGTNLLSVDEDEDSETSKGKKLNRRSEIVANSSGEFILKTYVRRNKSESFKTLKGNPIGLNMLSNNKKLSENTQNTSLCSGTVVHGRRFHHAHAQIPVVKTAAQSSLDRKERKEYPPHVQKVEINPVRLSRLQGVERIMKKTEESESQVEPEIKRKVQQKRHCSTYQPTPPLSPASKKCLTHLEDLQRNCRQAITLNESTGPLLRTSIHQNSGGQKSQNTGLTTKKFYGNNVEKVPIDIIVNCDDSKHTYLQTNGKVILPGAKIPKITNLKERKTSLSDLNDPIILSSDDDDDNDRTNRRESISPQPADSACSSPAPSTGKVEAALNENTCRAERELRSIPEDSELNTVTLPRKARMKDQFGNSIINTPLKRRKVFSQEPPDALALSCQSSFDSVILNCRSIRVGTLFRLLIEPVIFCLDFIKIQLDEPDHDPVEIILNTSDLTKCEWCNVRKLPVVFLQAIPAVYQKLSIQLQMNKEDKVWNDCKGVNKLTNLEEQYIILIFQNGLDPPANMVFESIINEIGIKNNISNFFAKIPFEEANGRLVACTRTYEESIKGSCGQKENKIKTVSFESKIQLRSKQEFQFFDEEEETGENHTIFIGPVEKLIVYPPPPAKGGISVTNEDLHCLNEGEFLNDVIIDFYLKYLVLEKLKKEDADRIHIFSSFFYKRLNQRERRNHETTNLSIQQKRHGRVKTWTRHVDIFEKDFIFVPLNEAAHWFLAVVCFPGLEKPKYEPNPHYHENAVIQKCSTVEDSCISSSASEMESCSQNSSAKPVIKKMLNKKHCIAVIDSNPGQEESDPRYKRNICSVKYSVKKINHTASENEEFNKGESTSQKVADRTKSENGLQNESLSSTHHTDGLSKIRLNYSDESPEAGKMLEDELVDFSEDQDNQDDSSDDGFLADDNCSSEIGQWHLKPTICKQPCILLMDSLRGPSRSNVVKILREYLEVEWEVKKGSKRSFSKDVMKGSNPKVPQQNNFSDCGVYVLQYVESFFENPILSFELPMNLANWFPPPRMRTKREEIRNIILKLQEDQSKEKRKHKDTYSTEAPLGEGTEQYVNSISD

[21] = target: T1, Oxysterols receptor LXR-beta; type: functional, cell-based
Caspase-3 = target: T4, Caspase-3 (Homo sapiens, UniProt P42574); type: functional;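 note: Dose-response selectivity test against caspase-3 for candidate inhibitors of sentrin-specific proteases (SENPs)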
T4 sequence (P42574 whole entry): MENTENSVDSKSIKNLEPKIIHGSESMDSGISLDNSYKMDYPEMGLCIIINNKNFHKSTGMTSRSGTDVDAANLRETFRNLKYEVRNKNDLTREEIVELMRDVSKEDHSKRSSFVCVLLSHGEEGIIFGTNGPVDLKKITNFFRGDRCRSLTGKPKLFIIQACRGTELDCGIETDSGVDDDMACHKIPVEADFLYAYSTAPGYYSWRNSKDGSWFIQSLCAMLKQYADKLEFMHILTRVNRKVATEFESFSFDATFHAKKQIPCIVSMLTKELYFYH

[22] = Luminescence-based cell-based high throughput dose response assay to identify activators of the DAF-12 from the parasite S. stercoralis (ssDAF-12).; type: functional
[23] = target: T5, Sentrin-specific protease 7 (Homo sapiens, UniProt Q9BQF6); type: functional;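 note: Luminescence-based dose-response confirmation of ultra-high-throughput screening hits, measuring inhibition of SENP7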
T5 sequence (Q9BQF6 whole entry): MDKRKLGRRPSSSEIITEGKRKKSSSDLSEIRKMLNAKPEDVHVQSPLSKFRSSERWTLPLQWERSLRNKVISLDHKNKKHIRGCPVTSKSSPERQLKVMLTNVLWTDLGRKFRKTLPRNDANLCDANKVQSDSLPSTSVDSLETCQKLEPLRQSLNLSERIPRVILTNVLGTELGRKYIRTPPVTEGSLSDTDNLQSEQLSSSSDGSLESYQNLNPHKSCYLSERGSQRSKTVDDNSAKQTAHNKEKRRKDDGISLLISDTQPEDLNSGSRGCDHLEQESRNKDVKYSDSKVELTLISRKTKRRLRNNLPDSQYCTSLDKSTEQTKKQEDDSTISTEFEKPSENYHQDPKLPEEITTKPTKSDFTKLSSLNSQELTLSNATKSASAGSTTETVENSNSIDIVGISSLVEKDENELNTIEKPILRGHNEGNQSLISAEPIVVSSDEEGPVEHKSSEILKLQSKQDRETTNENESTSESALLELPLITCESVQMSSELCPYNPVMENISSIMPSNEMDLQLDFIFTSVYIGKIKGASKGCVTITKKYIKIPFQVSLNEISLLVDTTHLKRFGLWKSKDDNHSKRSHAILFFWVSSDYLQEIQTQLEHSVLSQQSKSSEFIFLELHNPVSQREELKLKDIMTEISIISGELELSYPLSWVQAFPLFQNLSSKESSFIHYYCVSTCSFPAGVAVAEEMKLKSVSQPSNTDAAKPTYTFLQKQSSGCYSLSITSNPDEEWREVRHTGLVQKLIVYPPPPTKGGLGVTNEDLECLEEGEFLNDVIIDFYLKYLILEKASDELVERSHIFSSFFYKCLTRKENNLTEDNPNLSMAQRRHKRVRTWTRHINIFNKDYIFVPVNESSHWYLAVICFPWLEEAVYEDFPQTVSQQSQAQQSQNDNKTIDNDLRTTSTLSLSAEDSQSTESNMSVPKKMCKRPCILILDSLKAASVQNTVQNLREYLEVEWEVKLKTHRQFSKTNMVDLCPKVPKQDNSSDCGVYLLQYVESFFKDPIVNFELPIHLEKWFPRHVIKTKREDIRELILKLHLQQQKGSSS

[24] = growth inhibition of replicating M. tuberculosis, dose response, counter-screen, dry powder, IC90 (AID 651617); type: functional; details: Mycobacterium tuberculosis
[25] = inhibitors of non-replicating M. tuberculosis, dose response, luciferase, dry powder (AID 651620); type: functional; details: Mycobacterium tuberculosis
[26] = inhibitors of non-replicating M. tuberculosis, dose response, luciferase, dry powder (AID 651619); type: functional; details: Mycobacterium tuberculosis
[27] = inhibition of Env-driven cell fusion – HIV entry, plate reader, dry powder, dose response (AID 687023); type: functional, cell-based
[28] = viability loss in CEM21 cells – cell-based, plate reader, dry powder, cytotoxicity control, dose response (AID 687026); type: functional

Sequence of Luciferin 4-monooxygenase (P08659 whole entry): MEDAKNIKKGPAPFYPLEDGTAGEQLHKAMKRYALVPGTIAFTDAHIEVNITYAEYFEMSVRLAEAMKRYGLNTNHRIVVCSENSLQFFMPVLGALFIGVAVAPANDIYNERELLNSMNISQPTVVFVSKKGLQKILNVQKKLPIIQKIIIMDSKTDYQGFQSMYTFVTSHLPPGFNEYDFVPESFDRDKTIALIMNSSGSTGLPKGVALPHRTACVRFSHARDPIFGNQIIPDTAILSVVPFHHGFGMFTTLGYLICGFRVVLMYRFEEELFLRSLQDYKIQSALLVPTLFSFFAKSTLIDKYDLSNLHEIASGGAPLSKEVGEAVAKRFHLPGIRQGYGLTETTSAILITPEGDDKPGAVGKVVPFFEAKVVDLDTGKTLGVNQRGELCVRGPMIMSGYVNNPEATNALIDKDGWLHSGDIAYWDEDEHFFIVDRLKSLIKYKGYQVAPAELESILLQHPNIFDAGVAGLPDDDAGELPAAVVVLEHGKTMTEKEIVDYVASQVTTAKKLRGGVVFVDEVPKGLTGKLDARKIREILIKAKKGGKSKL
Sequence of Kallikrein-7 (P49862 whole entry): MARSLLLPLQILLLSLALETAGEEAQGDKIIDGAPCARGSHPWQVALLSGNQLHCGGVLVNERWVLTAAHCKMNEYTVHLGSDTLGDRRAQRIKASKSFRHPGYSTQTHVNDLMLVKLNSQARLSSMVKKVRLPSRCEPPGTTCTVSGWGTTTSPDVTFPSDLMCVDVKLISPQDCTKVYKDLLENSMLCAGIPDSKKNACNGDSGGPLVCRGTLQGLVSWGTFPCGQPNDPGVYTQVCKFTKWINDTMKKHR
Sequence of 1-phosphatidylinositol 4,5-bisphosphate phosphodiesterase gamma-1 (P19174 whole entry): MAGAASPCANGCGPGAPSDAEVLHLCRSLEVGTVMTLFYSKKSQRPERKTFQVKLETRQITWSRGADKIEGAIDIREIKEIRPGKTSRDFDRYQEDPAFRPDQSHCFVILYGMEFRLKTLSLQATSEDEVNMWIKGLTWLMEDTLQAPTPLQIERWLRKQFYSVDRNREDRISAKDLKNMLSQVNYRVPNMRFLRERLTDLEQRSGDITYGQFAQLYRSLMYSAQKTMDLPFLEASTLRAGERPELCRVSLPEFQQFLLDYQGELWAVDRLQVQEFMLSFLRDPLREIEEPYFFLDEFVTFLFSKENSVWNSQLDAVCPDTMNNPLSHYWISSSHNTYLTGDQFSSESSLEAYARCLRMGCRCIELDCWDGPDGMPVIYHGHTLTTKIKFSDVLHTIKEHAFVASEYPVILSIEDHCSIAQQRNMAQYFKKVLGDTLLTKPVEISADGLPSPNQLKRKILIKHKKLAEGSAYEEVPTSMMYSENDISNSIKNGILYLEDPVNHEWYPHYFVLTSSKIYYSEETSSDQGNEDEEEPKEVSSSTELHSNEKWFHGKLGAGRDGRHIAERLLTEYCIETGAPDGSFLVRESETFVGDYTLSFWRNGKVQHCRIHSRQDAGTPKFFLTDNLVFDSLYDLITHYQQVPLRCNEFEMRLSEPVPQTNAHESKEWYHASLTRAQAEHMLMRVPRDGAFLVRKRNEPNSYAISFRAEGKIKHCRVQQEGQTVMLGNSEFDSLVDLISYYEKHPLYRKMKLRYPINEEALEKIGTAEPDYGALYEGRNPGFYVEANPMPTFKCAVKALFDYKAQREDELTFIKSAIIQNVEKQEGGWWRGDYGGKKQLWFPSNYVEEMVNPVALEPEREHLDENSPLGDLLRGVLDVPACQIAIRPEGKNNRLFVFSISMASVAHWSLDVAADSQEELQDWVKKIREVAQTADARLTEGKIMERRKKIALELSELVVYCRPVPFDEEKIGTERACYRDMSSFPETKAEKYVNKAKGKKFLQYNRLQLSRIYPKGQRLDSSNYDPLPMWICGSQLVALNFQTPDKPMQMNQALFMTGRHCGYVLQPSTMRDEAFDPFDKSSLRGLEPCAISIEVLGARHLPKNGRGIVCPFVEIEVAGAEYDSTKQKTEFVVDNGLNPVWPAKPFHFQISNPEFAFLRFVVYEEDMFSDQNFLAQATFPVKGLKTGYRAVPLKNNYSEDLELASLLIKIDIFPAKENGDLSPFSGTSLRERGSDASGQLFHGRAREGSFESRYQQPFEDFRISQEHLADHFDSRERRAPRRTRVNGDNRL
Sequence of 1-phosphatidylinositol 4,5-bisphosphate phosphodiesterase beta-3 (Q01970 whole entry): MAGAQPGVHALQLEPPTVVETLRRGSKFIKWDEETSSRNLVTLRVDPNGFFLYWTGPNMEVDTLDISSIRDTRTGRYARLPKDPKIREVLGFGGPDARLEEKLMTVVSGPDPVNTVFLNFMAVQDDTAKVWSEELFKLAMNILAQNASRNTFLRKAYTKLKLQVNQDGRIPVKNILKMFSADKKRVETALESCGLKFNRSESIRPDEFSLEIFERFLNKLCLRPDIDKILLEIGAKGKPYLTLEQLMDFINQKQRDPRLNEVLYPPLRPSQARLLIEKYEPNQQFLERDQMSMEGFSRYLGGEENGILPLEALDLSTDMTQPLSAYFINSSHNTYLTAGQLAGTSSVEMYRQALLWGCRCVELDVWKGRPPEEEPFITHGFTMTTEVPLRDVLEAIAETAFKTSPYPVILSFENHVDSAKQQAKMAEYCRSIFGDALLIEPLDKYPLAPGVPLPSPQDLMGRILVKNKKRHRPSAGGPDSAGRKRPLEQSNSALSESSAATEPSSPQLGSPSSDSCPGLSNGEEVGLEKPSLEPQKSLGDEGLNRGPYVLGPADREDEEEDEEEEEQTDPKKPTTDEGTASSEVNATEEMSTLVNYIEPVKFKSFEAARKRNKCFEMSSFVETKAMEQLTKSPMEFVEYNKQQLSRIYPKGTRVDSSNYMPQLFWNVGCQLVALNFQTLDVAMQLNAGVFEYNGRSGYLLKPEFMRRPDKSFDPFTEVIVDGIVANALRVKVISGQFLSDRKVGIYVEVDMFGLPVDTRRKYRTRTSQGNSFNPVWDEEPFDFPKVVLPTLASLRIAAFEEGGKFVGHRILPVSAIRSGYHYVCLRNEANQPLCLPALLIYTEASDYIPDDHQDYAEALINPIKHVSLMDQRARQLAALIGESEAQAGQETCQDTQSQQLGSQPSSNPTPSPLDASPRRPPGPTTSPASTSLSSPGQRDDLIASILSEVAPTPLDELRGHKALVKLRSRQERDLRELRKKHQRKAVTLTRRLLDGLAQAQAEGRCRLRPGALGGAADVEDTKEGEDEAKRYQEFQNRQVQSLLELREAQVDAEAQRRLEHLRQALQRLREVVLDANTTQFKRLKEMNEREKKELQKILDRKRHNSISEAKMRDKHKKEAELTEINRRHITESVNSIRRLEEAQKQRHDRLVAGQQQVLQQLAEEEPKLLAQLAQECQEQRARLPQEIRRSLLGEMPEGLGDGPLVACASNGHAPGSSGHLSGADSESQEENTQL

CCc1ccccc1NCc1ccc(N2CCCC2)cc1
AC50 [1]: 149 µM (active)

CC1(C)CC(=O)C2=C(C1)c1c(ccc3ccccc13)NC2c1ccc(OCC(=O)O)cc1 (configuration not stated)
EC50 (Kallikrein-7): > 69.5 µM (inactive)

Nc1ncnc2c1ncn2[C@@H]1O[C@H](COP(=O)(O)O)[C@@H](O)[C@H]1O
EC50 [2]: 1.48 µM (active) | IC50 [3]: > 122 µM (inactive) | EC50 [4]: 1.13 µM (active) | IC50 [5]: 13.2 µM (inactive)

O=C1C=C(Nc2ccc([N+](=O)[O-])c(C(F)(F)F)c2)C(=O)c2ccccc21
AC50 [6]: 27.7 µM (active) | AC50 [7]: 36.1 µM (active) | AC50 [8]: 5.19 µM (active) | AC50 [9]: 8.56 µM (active) | AC50 [10]: > 70 µM (inactive) | AC50 [11]: 15.3 µM (active) | AC50 [12]: 1.06 µM (active) | AC50 [13]: 27.7 µM (active) | AC50 [14]: > 70 µM (inactive)

O=C(Nc1ccc2oc(-c3cccc4ccccc34)nc2c1)c1nc[nH]n1
CC50 (Vero): > 40 µM (active) | EC50 [15]: 15.8 µM (active) | EC50 (H4): 5.42 µM (active) | EC50 [16]: 0.627 µM (active) | IC50 [17]: 7.47 µM (active)

Cc1csc(NC(=O)c2ccc3ccccc3n2)n1
EC50 [18]: > 67.6 µM (inactive) | IC50 [19]: 16.2 µM (active) | IC50 [20]: 11 µM (active) | EC50 [21]: > 67.6 µM (inactive) | IC50 (Caspase-3): 6.96 µM (active) | IC50 [22]: > 67.6 µM (inactive) | IC50 [23]: 5.25 µM (active)

c1ccc(-c2nnc(SCc3ccncc3)o2)cc1
IC90 [24]: 250 µM (active) | IC90 [25]: 31 µM (active) | IC90 [26]: 31 µM (active)

Cc1noc(C)c1S(=O)(=O)Nc1cccc2c1O[C@@H](CN(C)Cc1ccc(C(F)(F)F)cc1)[C@@H](C)CN([C@H](C)CO)C2=O
AC50 [27]: 18.6 µM (active) | AC50 [28]: > 70 µM (inactive)

From ChEMBL document CHEMBL1201862, “PubChem BioAssay data set” (2004)
